Measurements reported in patent US12180139B2, “Method for preparing aminoalkanoic acid derivative containing biphenyl group” (AMTIXBIO CO., LTD., priority 2019, dated 2024).

Tests used:
interleukin 6 (IL-6) = details: RAW264.7 cells, compound 8 μg/mL 1 hour, then LPS 1 μg/mL 24 hours; relative to LPS without compound
Protocol: The anti-inflammatory effects of the compounds of the present invention were evaluated using RAW264.7 cells which were stimulated to secrete interleukin 6 (IL-6). Specifically, RAW264.7 cells (obtained from Korean Cell Line Bank), mouse macrophages, were inoculated into a 12-well plate at 5×10^5 cells/well and incubated at 37° C. for 16 to 24 hours. The compounds of the present invention were added to the cell culture medium containing RAW264.7 cells incubated as above at a final concentration of 0 or 8 μg/ ? , and then incubated at 37° C. for 1 hour. Next, lipopolysaccharide (LPS, Sigma-Aldrich, USA) was further added to the medium at a final concentration of 1 μg/ ? , and the medium was incubated at 37° C. for 24 hours to induce IL-6 expression. Thereafter, IL-6 levels produced by the RAW264.7 cells were measured using an ELISA kit (Komabiotech Inc. Korea) according to the manufacturer's instructions. In Table 9, IL6 levels were expressed as a relative percentage (%) between LPS-induced IL6 levels after the treatment with the compound of the present invention and LPS-induced IL6 levels without the treatment of the compound of the present invention.

C. albicans = details: RPMI1640 broth, 35° C., 48 hours, visual reading; expressed as a range value
C. glabrata = details: RPMI1640 broth, 35° C., 48 hours, visual reading; expressed as a range value
Protocol: (§2) An in vitro antifungal susceptibility test was performed in accordance with the US Clinical and Laboratory Standards Institute (CLSI) guidelines to measure the degree of antifungal activity of the compounds synthesized in the Preparation Examples against opportunistic pathogenic fungi. […] The MIC value (μg/ ? ) is expressed as a range value. Specifically, Candida species and Cryptococcus neoformans were incubated in a Sabouraud dextrose agar (SDA) (Sigma-Aldrich) solid medium for 24 and 48 hours, respectively to obtain single colonies. The obtained single colonies were suspended in 0.85% physiological saline to prepare fungal cell suspension (1 to 5×10^6 cells/ ? ). Fungal cells 2000-fold diluted in RPMI1640 broth (Sigma-Aldrich) were seeded on 96-well plates (5×10^2 to 2.5×10^3 cells/ ? , 195 ? /well). Serial two-fold dilutions (128, 64, 32, 16, 8, 4, 2, 1, and 0.5 μg/ ? ) of compounds were prepared by diluting the compounds synthesized according to the above preparation examples. Then, 5 ? from each dilution was added to the well of the 96-well plate containing fungal cell suspension to give a final suspension of 200 ? per well. […] As a positive control, amphotericin B (AMB), which is highly toxic to the human body but is known as a representative antifungal agent, was used.

A. fumigatus = details: visual reading; expressed as a range value
Protocol: as §2

C. neoformans = details: RPMI1640 broth, 35° C., 72 hours, visual reading; expressed as a range value
Protocol: as §2

MRSA = test: Antibacterial MIC test (CLSI); type: cell-based, Methicillin-resistant Staphylococcus aureus; details: MHB liquid medium, 37° C., 24 hours
Protocol: (§1) The MIC test was conducted in accordance CLSI guidelines. […] As a positive control, Nofloxacin and Vancomycin were used.

B. cereus (+) = test: Antibacterial MIC test (CLSI); type: cell-based; details: MHB liquid medium, 37° C., 24 hours
Protocol: as §1

M. luteus (+) = test: Antibacterial MIC test (CLSI); type: cell-based; details: MHB liquid medium, 37° C., 24 hours
Protocol: as §1

B. coagulans (+) = test: Antibacterial MIC test (CLSI); type: cell-based; details: MHB liquid medium, 37° C., 24 hours
Protocol: as §1

S. aureus enterica (−) = test: Antibacterial MIC test (CLSI); type: cell-based; details: MHB liquid medium, 37° C., 24 hours
Protocol: as §1

E. coli (−) = test: Antibacterial MIC test (CLSI); type: cell-based; details: MHB liquid medium, 37° C., 24 hours
Protocol: as §1

P. acnes (+) = test: Antibacterial MIC test (CLSI); type: cell-based; details: MHB liquid medium, 37° C., 24 hours
Protocol: as §1

B. subtilis (+) = test: Antibacterial MIC test (CLSI); type: cell-based; details: MHB liquid medium, 37° C., 24 hours
Protocol: as §1

L. monocytogenes (+) = test: Antibacterial MIC test (CLSI); type: cell-based; details: MHB liquid medium, 37° C., 24 hours
Protocol: as §1

S. epidermidis (+) = details: MHB liquid medium, 37° C., 24 hours
S. aureus (+) = details: MHB liquid medium, 37° C., 24 hours

Row | SMILES | Relative IL-6 levels (%) (interleukin 6 (IL-6)) | MIC (μg/mL) C. albicans (C. albicans) | MIC (μg/mL) C. glabrata (C. glabrata) | MIC (μg/mL) A. fumigatus (A. fumigatus) | MIC (μg/mL) C. neoformans (C. neoformans) | MIC MRSA (MRSA) | MIC B. cereus (+) (B. cereus (+)) | MIC M. luteus (+) (M. luteus (+)) | MIC B. coagulans (+) (B. coagulans (+)) | MIC S. aureus enterica (−) (S. aureus enterica (−)) | MIC E. coli (−) (E. coli (−)) | MIC P. acnes (+) (P. acnes (+)) | MIC B. subtilis (+) (B. subtilis (+)) | MIC L. monocytogenes (+) (L. monocytogenes (+)) | MIC S. epidermidis (+) (S. epidermidis (+)) | MIC S. aureus (+) (S. aureus (+))
1 | CCCC(N)C(=O)Nc1ccc(-c2ccc(OC(F)(F)F)cc2)cc1.Cl (racemic) [Compound 32, (R)/(S)-2-amino-N-(4′-(trifluoromethoxy)-[1,1′-biphenyl]-4-yl)pentanamide hydrochloride] | 16% | 4~16 μg/mL | 4~16 μg/mL | 4~16 μg/mL | 2~8 μg/mL |  |  |  |  |  |  |  |  |  |  | 
2 | CCCC(C(=O)Nc1ccc(-c2ccc(Cl)c(Cl)c2)cc1)N(C)C (racemic) [Compound 36, (R)/(S)-N-(3′,4′-dichloro-[1,1′-biphenyl]-4-yl)-2-(dimethylamino)pentanamide] | 9% | 4~16 μg/mL | 4~16 μg/mL | 4~16 μg/mL | 2~8 μg/mL |  |  |  |  |  |  |  |  |  |  | 
3 | CCCC(N)C(=O)NCc1ccc(-c2ccc(Cl)c(Cl)c2)cc1.Cl (racemic) [Compound 45, (R)/(S)-2-amino-N-((3′,4′-dichloro-[1,1′-biphenyl]-4-yl)methyl)pentanamide hydrochloride] | 3% | 8~32 μg/mL | 8~32 μg/mL | 8~32 μg/mL | 2~8 μg/mL |  |  |  |  |  |  |  |  |  |  | 
4 | CCCC(N)C(=O)NCc1ccc(-c2ccc(C(F)(F)F)cc2)cc1.Cl (racemic) [Compound 47, (R)/(S)-2-amino-N-((4′-(trifluoromethyl)-[1,1′-biphenyl]-4-yl)methyl)pentanamide hydrochloride] | 12% | 8~32 μg/mL | 8~32 μg/mL | 8~32 μg/mL | 4~16 μg/mL |  |  |  |  |  |  |  |  |  |  | 
5 | CCCCC(N)C(=O)NCc1ccc(-c2ccc(C(F)(F)F)cc2)cc1.Cl (racemic) [Compound 48, (R)/(S)-2-amino-N-((4′-(trifluoromethyl)-[1,1′-biphenyl]-4-yl)methyl)hexanamide hydrochloride] | 67% | 4~16 μg/mL | 4~16 μg/mL | 4~16 μg/mL | 4~16 μg/mL |  |  |  |  |  |  |  |  |  |  | 
6 | CCCC(N)C(=O)NCc1ccc(-c2ccc(OC(F)(F)F)cc2)cc1.Cl (racemic) [Compound 49, (R)/(S)-2-amino-N-((4′-(trifluoromethoxy)-[1,1′-biphenyl]-4-yl)methyl)pentanamide hydrochloride] | 50% | 8~32 μg/mL | 8~32 μg/mL | 8~32 μg/mL | 4~16 μg/mL |  |  |  |  |  |  |  |  |  |  | 
7 | CCCCC(N)C(=O)NCc1ccc(-c2ccc(OC(F)(F)F)cc2)cc1.Cl (racemic) [Compound 50, (R)/(S)-2-amino-N-((4′-(trifluoromethoxy)-[1,1′-biphenyl]-4-yl)methyl)hexanamide hydrochloride] | 68% | 4~16 μg/mL | 4~16 μg/mL | 4~16 μg/mL | 4~16 μg/mL |  |  |  |  |  |  |  |  |  |  | 
8 | CCCC(NC)C(=O)NCc1ccc(-c2ccc(C(F)(F)F)cc2)cc1.Cl (racemic) [Compound 52, (R)/(S)-2-(methylamino)-N-((4′-(trifluoromethyl)-[1,1′-biphenyl]-4-yl)methyl)pentanamide hydrochloride] | 13% | 8~32 μg/mL | 8~32 μg/mL | 8~32 μg/mL | 4~16 μg/mL |  |  |  |  |  |  |  |  |  |  | 
9 | CCCC(C(=O)NCc1ccc(-c2ccc(Cl)c(Cl)c2)cc1)N(C)C (racemic) [Compound 53, (R)/(S)-N-((3′,4′-dichloro-[1,1′-biphenyl]-4-yl)methyl)-2-(dimethylamino)pentanamide] | 5% | 8~32 μg/mL | 8~32 μg/mL | 8~32 μg/mL | 2~8 μg/mL |  |  |  |  |  |  |  |  |  |  | 
10 | CCC(N)C(=O)NCCc1ccc(-c2ccc(C(F)(F)F)cc2)cc1.Cl (racemic) [Compound 76, (R)/(S)-2-amino-N-(2-(4′-(trifluoromethyl)-[1,1′-biphenyl]-4-yl)ethyl)butanamide hydrochloride] | 9.58% | 16~64 μg/mL | 8~32 μg/mL | 8~32 μg/mL | 8~32 μg/mL | 32 µg/mL | 64 µg/mL | 16 µg/mL | <4 µg/mL | 32 µg/mL | 16 µg/mL | 16 µg/mL | 16 µg/mL | 16 µg/mL | 16 µg/mL | 32 µg/mL
11 | CCCC(N)C(=O)NCCc1ccc(-c2ccc(C(F)(F)F)cc2)cc1.Cl (racemic) [Compound 77, (R)/(S)-2-amino-N-(2-(4′-(trifluoromethyl)-[1,1′-biphenyl]-4-yl)ethyl)pentanamide hydrochloride] | 5% | 8~32 μg/mL | 8~32 μg/mL | 8~32 μg/mL | 4~16 μg/mL |  |  |  |  |  |  |  |  |  |  | 
12 | CCCC(N)C(=O)NCCc1ccc(-c2ccc(OC(F)(F)F)cc2)cc1.Cl (racemic) [Compound 80, (R)/(S)-2-amino-N-(2-(4′-(trifluoromethoxy)-[1,1′-biphenyl]-4-yl)ethyl)pentanamide hydrochloride] | 6% | 4~16 μg/mL | 4~16 μg/mL | 4~16 μg/mL | 2~8 μg/mL |  |  |  |  |  |  |  |  |  |  | 
13 | CCCC(N)C(=O)NCCc1ccc(-c2ccc(F)c(F)c2)cc1.Cl (racemic) [Compound 82, (R)/(S)-2-amino-N-(2-(3′,4′-difluoro-[1,1′-biphenyl]-4-yl)ethyl)pentanamide hydrochloride] | 3% | 4~16 μg/mL | 4~16 μg/mL | 4~16 μg/mL | 4~16 μg/mL |  |  |  |  |  |  |  |  |  |  | 
14 | CCC(NC)C(=O)NCCc1ccc(-c2ccc(Cl)c(Cl)c2)cc1.Cl (racemic) [Compound 83, (R)/(S)-N-(2-(3′,4′-dichloro-[1,1′-biphenyl]-4-yl)ethyl)-2-(methylamino)butanamide hydrochloride] | 9% | 8~32 μg/mL | 8~32 μg/mL | 8~32 μg/mL | 2~8 μg/mL |  |  |  |  |  |  |  |  |  |  | 
15 | CCCC(NC)C(=O)NCCc1ccc(-c2ccc(C(F)(F)F)cc2)cc1.Cl (racemic) [Compound 87, (R)/(S)-2-(methylamino)-N-(2-(4′-(trifluoromethyl)-[1,1′-biphenyl]-4-yl)ethyl)pentanamide hydrochloride] | 24% | 4~16 μg/mL | 4~16 μg/mL | 4~16 μg/mL | 4~16 μg/mL |  |  |  |  |  |  |  |  |  |  | 
